Results taken from PubChem BioAssay (NCI).
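All cell lines were grown in 96-well plates and treated with compound for 48 hours. The concentration for full growth arrest is given as TGI.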

What was measured:
Test in all cases: DTP human tumour cell line panel, 48 h
786-0 renal = test system: 786-0 renal
A498 renal = test system: A498 renal
A549 NSCLC = test system: A549 NSCLC
ACHN renal = test system: ACHN renal
BT-549 breast = test system: BT-549 breast
CAKI-1 renal = test system: CAKI-1 renal
CCRF-CEM leukemia = test system: CCRF-CEM leukemia
COLO 205 colon = test system: COLO 205 colon
DU-145 prostate = test system: DU-145 prostate
EKVX NSCLC = test system: EKVX NSCLC
HCC-2998 colon = test system: HCC-2998 colon
HCT-116 colon = test system: HCT-116 colon
HCT-15 colon = test system: HCT-15 colon
HL-60(TB) leukemia = test system: HL-60(TB) leukemia
HOP-62 NSCLC = test system: HOP-62 NSCLC
HOP-92 NSCLC = test system: HOP-92 NSCLC
HS 578T breast = test system: HS 578T breast
HT29 colon = test system: HT29 colon
IGROV1 ovarian = test system: IGROV1 ovarian
K-562 leukemia = test system: K-562 leukemia
KM12 colon = test system: KM12 colon
M14 melanoma = test system: M14 melanoma
MALME-3M melanoma = test system: MALME-3M melanoma
MCF7 breast = test system: MCF7 breast
MDA-MB-231 breast = test system: MDA-MB-231 breast
MDA-MB-435 = test system: MDA-MB-435
MDA-N = test system: MDA-N
MOLT-4 leukemia = test system: MOLT-4 leukemia
NCI-H226 lung = test system: NCI-H226 lung
NCI-H23 lung = test system: NCI-H23 lung
NCI-H460 lung = test system: NCI-H460 lung
NCI-H522 lung = test system: NCI-H522 lung
NCI/ADR-RES ovarian = test system: NCI/ADR-RES ovarian
OVCAR-3 ovarian = test system: OVCAR-3 ovarian
OVCAR-4 ovarian = test system: OVCAR-4 ovarian
OVCAR-5 ovarian = test system: OVCAR-5 ovarian
OVCAR-8 ovarian = test system: OVCAR-8 ovarian
PC-3 prostate = test system: PC-3 prostate
RPMI-8226 leukemia = test system: RPMI-8226 leukemia
RXF 393 renal = test system: RXF 393 renal
SF-268 CNS = test system: SF-268 CNS
SF-295 CNS = test system: SF-295 CNS
SF-539 CNS = test system: SF-539 CNS
SK-MEL-2 melanoma = test system: SK-MEL-2 melanoma
SK-MEL-28 melanoma = test system: SK-MEL-28 melanoma
SK-MEL-5 melanoma = test system: SK-MEL-5 melanoma
SK-OV-3 ovarian = test system: SK-OV-3 ovarian
SN12C renal = test system: SN12C renal
SNB-19 CNS = test system: SNB-19 CNS
SNB-75 CNS = test system: SNB-75 CNS
SR leukemia = test system: SR leukemia
SW-620 colon = test system: SW-620 colon
T-47D breast = test system: T-47D breast
TK-10 renal = test system: TK-10 renal
U251 CNS = test system: U251 CNS
UACC-257 melanoma = test system: UACC-257 melanoma
UACC-62 melanoma = test system: UACC-62 melanoma
UO-31 renal = test system: UO-31 renal
LOX IMVI melanoma = test system: LOX IMVI melanoma

O=C(O)c1c[nH]c2cc(OCc3ccccc3)ccc2c1=O
TGI (786-0 renal): 32.5 µM
TGI (A498 renal): 31.4 µM
TGI (A549 NSCLC): 35.5 µM
TGI (ACHN renal): 32.7 µM
TGI (BT-549 breast): 32.5 µM
TGI (CAKI-1 renal): 40.1 µM
TGI (CCRF-CEM leukemia): 53.2 µM
TGI (COLO 205 colon): 34.8 µM
TGI (DU-145 prostate): 33.3 µM
TGI (EKVX NSCLC): 38.7 µM
TGI (HCC-2998 colon): 32.2 µM
TGI (HCT-116 colon): 31 µM
TGI (HCT-15 colon): 36.1 µM
TGI (HL-60(TB) leukemia): 2.32 µM
TGI (HOP-62 NSCLC): 35.9 µM
TGI (HOP-92 NSCLC): 35.1 µM
TGI (HS 578T breast): 45.2 µM
TGI (HT29 colon): 33.3 µM
TGI (IGROV1 ovarian): 32.4 µM
TGI (K-562 leukemia): 54.3 µM
TGI (KM12 colon): 33.8 µM
TGI (M14 melanoma): 31.8 µM
TGI (MALME-3M melanoma): 31.7 µM
TGI (MCF7 breast): 39.8 µM
TGI (MDA-MB-231 breast): 48.6 µM
TGI (MDA-MB-435): 30 µM
TGI (MDA-N): 30.9 µM
TGI (MOLT-4 leukemia): 84 µM
TGI (NCI-H226 lung): 33.8 µM
TGI (NCI-H23 lung): 33.3 µM
TGI (NCI-H460 lung): 34.5 µM
TGI (NCI-H522 lung): 30.8 µM
TGI (NCI/ADR-RES ovarian): 37.8 µM
TGI (OVCAR-3 ovarian): 35.3 µM
TGI (OVCAR-4 ovarian): 31.1 µM
TGI (OVCAR-5 ovarian): 42.1 µM
TGI (OVCAR-8 ovarian): 35.3 µM
TGI (PC-3 prostate): 31.2 µM
TGI (RPMI-8226 leukemia): 64.9 µM
TGI (RXF 393 renal): 38.2 µM
TGI (SF-268 CNS): 29.4 µM
TGI (SF-295 CNS): 34.4 µM
TGI (SF-539 CNS): 36.8 µM
TGI (SK-MEL-2 melanoma): 33.3 µM
TGI (SK-MEL-28 melanoma): 30.1 µM
TGI (SK-MEL-5 melanoma): 32 µM
TGI (SK-OV-3 ovarian): 36.6 µM
TGI (SN12C renal): 32.2 µM
TGI (SNB-19 CNS): 32.4 µM
TGI (SNB-75 CNS): 31.4 µM
TGI (SR leukemia): 53.8 µM
TGI (SW-620 colon): 40.5 µM
TGI (T-47D breast): 38.8 µM
TGI (TK-10 renal): 39.6 µM
TGI (U251 CNS): 36.1 µM
TGI (UACC-257 melanoma): 50.7 µM
TGI (UACC-62 melanoma): 30.5 µM
TGI (UO-31 renal): 31.1 µM

COc1ccc2[nH]c(Cl)c(/C=C3/C(=O)N(c4ccccc4)c4ccccc43)c2c1
TGI (786-0 renal): 20.9 µM
TGI (A498 renal): > 100 µM
TGI (A549 NSCLC): > 100 µM
TGI (ACHN renal): > 100 µM
TGI (BT-549 breast): 11.3 µM
TGI (CAKI-1 renal): > 100 µM
TGI (CCRF-CEM leukemia): 63.4 µM
TGI (COLO 205 colon): 5.89 µM
TGI (DU-145 prostate): 76.4 µM
TGI (EKVX NSCLC): 69.5 µM
TGI (HCC-2998 colon): 17.6 µM
TGI (HCT-116 colon): 18.6 µM
TGI (HCT-15 colon): 13 µM
TGI (HL-60(TB) leukemia): 9.02 µM
TGI (HOP-62 NSCLC): 23.4 µM
TGI (HOP-92 NSCLC): > 100 µM
TGI (HS 578T breast): 39.6 µM
TGI (HT29 colon): 45.8 µM
TGI (IGROV1 ovarian): > 100 µM
TGI (K-562 leukemia): 26.4 µM
TGI (KM12 colon): > 100 µM
TGI (LOX IMVI melanoma): 14.3 µM
TGI (M14 melanoma): 12.9 µM
TGI (MALME-3M melanoma): 36.2 µM
TGI (MCF7 breast): > 100 µM
TGI (MDA-MB-231 breast): 65.3 µM
TGI (MDA-MB-435): 4.33 µM
TGI (MDA-N): 3.53 µM
TGI (MOLT-4 leukemia): > 100 µM
TGI (NCI-H23 lung): 19.5 µM
TGI (NCI-H460 lung): 16.3 µM
TGI (NCI-H522 lung): 17.9 µM
TGI (NCI/ADR-RES ovarian): 6.45 µM
TGI (OVCAR-3 ovarian): 7.71 µM
TGI (OVCAR-5 ovarian): 94.8 µM
TGI (OVCAR-8 ovarian): 28.8 µM
TGI (PC-3 prostate): > 100 µM
TGI (RPMI-8226 leukemia): 20.4 µM
TGI (RXF 393 renal): 47.3 µM
TGI (SF-268 CNS): 23.3 µM
TGI (SF-295 CNS): 7.33 µM
TGI (SF-539 CNS): 6.63 µM
TGI (SK-MEL-2 melanoma): 10.9 µM
TGI (SK-MEL-28 melanoma): 52 µM
TGI (SK-MEL-5 melanoma): 5.97 µM
TGI (SK-OV-3 ovarian): 10.8 µM
TGI (SN12C renal): 18.9 µM
TGI (SNB-19 CNS): 88.5 µM
TGI (SNB-75 CNS): 49.1 µM
TGI (SR leukemia): 11.1 µM
TGI (SW-620 colon): 24.6 µM
TGI (T-47D breast): 21.4 µM
TGI (TK-10 renal): 36.5 µM
TGI (U251 CNS): 30.7 µM
TGI (UACC-257 melanoma): 24.3 µM
TGI (UACC-62 melanoma): 43.4 µM
TGI (UO-31 renal): 93.1 µM

COc1ccc(N2CCOCC2)cc1
TGI (786-0 renal): > 100 µM
TGI (A498 renal): > 100 µM
TGI (A549 NSCLC): > 100 µM
TGI (ACHN renal): > 100 µM
TGI (BT-549 breast): > 100 µM
TGI (CAKI-1 renal): > 100 µM
TGI (CCRF-CEM leukemia): > 100 µM
TGI (COLO 205 colon): > 100 µM
TGI (DU-145 prostate): > 100 µM
TGI (EKVX NSCLC): > 100 µM
TGI (HCC-2998 colon): > 100 µM
TGI (HCT-116 colon): > 100 µM
TGI (HCT-15 colon): > 100 µM
TGI (HL-60(TB) leukemia): > 100 µM
TGI (HOP-62 NSCLC): > 100 µM
TGI (HOP-92 NSCLC): > 100 µM
TGI (HS 578T breast): > 100 µM
TGI (HT29 colon): > 100 µM
TGI (IGROV1 ovarian): > 100 µM
TGI (K-562 leukemia): > 100 µM
TGI (KM12 colon): > 100 µM
TGI (M14 melanoma): > 100 µM
TGI (MALME-3M melanoma): > 100 µM
TGI (MCF7 breast): > 100 µM
TGI (MDA-MB-231 breast): > 100 µM
TGI (MDA-MB-435): > 100 µM
TGI (MDA-N): > 100 µM
TGI (MOLT-4 leukemia): > 100 µM
TGI (NCI-H226 lung): > 100 µM
TGI (NCI-H23 lung): > 100 µM
TGI (NCI-H460 lung): > 100 µM
TGI (NCI-H522 lung): > 100 µM
TGI (NCI/ADR-RES ovarian): > 100 µM
TGI (OVCAR-3 ovarian): > 100 µM
TGI (OVCAR-4 ovarian): > 100 µM
TGI (OVCAR-5 ovarian): > 100 µM
TGI (OVCAR-8 ovarian): > 100 µM
TGI (PC-3 prostate): > 100 µM
TGI (RPMI-8226 leukemia): > 100 µM
TGI (RXF 393 renal): > 100 µM
TGI (SF-268 CNS): > 100 µM
TGI (SF-295 CNS): > 100 µM
TGI (SF-539 CNS): > 100 µM
TGI (SK-MEL-2 melanoma): > 100 µM
TGI (SK-MEL-28 melanoma): > 100 µM
TGI (SK-MEL-5 melanoma): > 100 µM
TGI (SK-OV-3 ovarian): > 100 µM
TGI (SN12C renal): > 100 µM
TGI (SNB-19 CNS): > 100 µM
TGI (SNB-75 CNS): > 100 µM
TGI (SR leukemia): > 100 µM
TGI (SW-620 colon): > 100 µM
TGI (T-47D breast): > 100 µM
TGI (TK-10 renal): > 100 µM
TGI (U251 CNS): > 100 µM
TGI (UACC-257 melanoma): > 100 µM
TGI (UACC-62 melanoma): > 100 µM
TGI (UO-31 renal): > 100 µM
